The target of one test is T1, aldose reductase (Homo sapiens, UniProt P15121). Put plainly: In vitro enzyme inhibitory assay against human aldose reductase. The class given is biochemical. The settings on record: AR inhibition, Epalrestat as positive control.
In turn, `O=C(CN1C(=O)S/C(=C\c2ccc([N+](=O)[O-])cc2)C1=O)c1ccc([N+](=O)[O-])cc1` [Compound 5a, (Z)-5-(4-nitrobenzylidene)-3-(2-(4-nitrophenyl)-2-oxoethyl)thiazolidine-2,4-dione] showed an IC50 of 220 nM.

On to `COc1cc(/C=C2\SC(=O)N(CC(=O)c3ccc([N+](=O)[O-])cc3)C2=O)cc(OC)c1OC` [Compound 5g, (Z)-3-(2-(4-nitrophenyl)-2-oxoethyl)-5-(3,4,5-trimethoxybenzylidene)thiazolidine-2,4-dione], for which the IC50 is 720 nM.

`O=C1S/C(=C\c2ccc(Br)cc2)C(=O)N1Cc1nc2ccccc2s1` [Compound 8c, (Z)-3-(benzo[d]thiazol-2-ylmethyl)-5-(4-bromobenzylidene)thiazolidine-2,4-dione] registered a 50% inhibitory concentration (IC50) of 210 nM.

`O=C(CN1C(=O)S/C(=C\c2cccc([N+](=O)[O-])c2)C1=O)c1ccc([N+](=O)[O-])cc1` [Compound 5h, (Z)-5-(3-nitrobenzylidene)-3-(2-(4-nitrophenyl)-2-oxoethyl)thiazolidine-2,4-dione]: the IC50 is 510 nM.

For `O=C1S/C(=C\c2ccc(Cl)cc2)C(=O)N1Cc1nc2ccccc2s1` [Compound 8b, (Z)-3-(benzo[d]thiazol-2-ylmethyl)-5-(4-chlorobenzylidene)thiazolidine-2,4-dione], the IC50 turned out to be 160 nM.

As for `Cc1ccc(/C=C2\SC(=O)N(CC(=O)c3ccc([N+](=O)[O-])cc3)C2=O)cc1` [Compound 5e, (Z)-5-(4-methylbenzylidene)-3-(2-(4-nitrophenyl)-2-oxoethyl)thiazolidine-2,4-dione], the IC50 was 550 nM.

In turn, `O=C1S/C(=C\c2ccc(F)cc2)C(=O)N1Cc1nc2ccccc2s1` [Compound 8d, (Z)-3-(benzo[d]thiazol-2-ylmethyl)-5-(4-fluorobenzylidene)thiazolidine-2,4-dione] showed an IC50 of 330 nM.

`O=C(CN1C(=O)S/C(=C\c2ccc(Cl)cc2)C1=O)c1ccc([N+](=O)[O-])cc1` [Compound 5b, (Z)-5-(4-chlorobenzylidene)-3-(2-(4-nitrophenyl)-2-oxoethyl)thiazolidine-2,4-dione] returned an IC50 of 460 nM.

For the compound `COc1cc(/C=C2\SC(=O)N(Cc3nc4ccccc4s3)C2=O)cc(OC)c1OC` [Compound 8g, (Z)-3-(benzo[d]thiazol-2-ylmethyl)-5-(3,4,5-trimethoxybenzylidene)thiazolidine-2,4-dione], the IC50 was 270 nM.

The compound `Cc1ccc(/C=C2\SC(=O)N(Cc3nc4ccccc4s3)C2=O)cc1` [Compound 8e, (Z)-3-(benzo[d]thiazol-2-ylmethyl)-5-(4-methylbenzylidene)thiazolidine-2,4-dione] gave an IC50 of 290 nM.

The compound `O=C(CN1C(=O)S/C(=C\c2ccc(F)cc2)C1=O)c1ccc([N+](=O)[O-])cc1` [Compound 5d, (Z)-5-(4-fluorobenzylidene)-3-(2-(4-nitrophenyl)-2-oxoethyl)thiazolidine-2,4-dione] yielded an IC50 of 570 nM.

`COc1ccc(/C=C2\SC(=O)N(Cc3nc4ccccc4s3)C2=O)cc1` [Compound 8f, (Z)-3-(benzo[d]thiazol-2-ylmethyl)-5-(4-methoxybenzylidene)thiazolidine-2,4-dione] yielded an IC50 of 940 nM.

Turning to `O=C(CN1C(=O)S/C(=C\c2cccc(Br)c2)C1=O)c1ccc([N+](=O)[O-])cc1` [Compound 5k, (Z)-5-(3-bromobenzylidene)-3-(2-(4-nitrophenyl)-2-oxoethyl)thiazolidine-2,4-dione], the IC50 stood at 410 nM.

On to `O=C1S/C(=C\c2ccc([N+](=O)[O-])cc2)C(=O)N1Cc1nc2ccccc2s1` [Compound 8a, (Z)-3-(benzo[d]thiazol-2-ylmethyl)-5-(4-nitrobenzylidene)thiazolidine-2,4-dione], for which the IC50 came out at 1980 nM.

The compound `COc1ccc(/C=C2\SC(=O)N(Cc3nc4ccccc4s3)C2=O)cc1OC` [Compound 8h, (Z)-3-(benzo[d]thiazol-2-ylmethyl)-5-(3,4-dimethoxybenzylidene)thiazolidine-2,4-dione] registered an IC50 of 450 nM.

As to `COc1ccc(/C=C2\SC(=O)N(CC(=O)c3ccc([N+](=O)[O-])cc3)C2=O)cc1` [Compound 5f, (Z)-5-(4-methoxybenzylidene)-3-(2-(4-nitrophenyl)-2-oxoethyl)thiazolidine-2,4-dione], the IC50 was found to be 280 nM.

As to `O=C(CN1C(=O)S/C(=C\c2ccc(Br)cc2)C1=O)c1ccc([N+](=O)[O-])cc1` [Compound 5c, (Z)-5-(4-bromobenzylidene)-3-(2-(4-nitrophenyl)-2-oxoethyl)thiazolidine-2,4-dione], it took 490 nM to reach half-maximal inhibition (IC50).

The target in another test is T1, aldose reductase.
Test: not given
To be noted: at 0.5 IC50.
As for `O=C1S/C(=C\c2ccc(Cl)cc2)C(=O)N1Cc1nc2ccccc2s1` [Compound 8b, (Z)-3-(benzo[d]thiazol-2-ylmethyl)-5-(4-chlorobenzylidene)thiazolidine-2,4-dione], the “effect on Km” value is recorded as “slight reduction” and the “effect on Vmax” value is “significant reduction”.

Still in this test, the particulars now being: at concentrations equal to IC50 and double of IC50.
In the case of `O=C1S/C(=C\c2ccc(Cl)cc2)C(=O)N1Cc1nc2ccccc2s1` [Compound 8b, (Z)-3-(benzo[d]thiazol-2-ylmethyl)-5-(4-chlorobenzylidene)thiazolidine-2,4-dione], the “effect on Km and Vmax” value is listed as “decreased significantly”.

A further test concerns AR.
Test: not given
The settings on record: read-out: IC50 (reported AR inhibition); Zopolrestat; cited from earlier work.
Take `O=C(O)Cc1nn(Cc2nc3cc(C(F)(F)F)ccc3s2)c(=O)c2ccccc12` [Zopolrestat, 3,4-dihydro-4-oxo-3-[[5-(trifluoromethyl)-2-benzothiazolyl]methyl]-1-phthalazineacetic acid]: the IC50 was 3.1 nM.

As usually defined, the IC50 is the midpoint of a concentration-inhibition curve.

The values are drawn from article PMC10361003 (Journal of Enzyme Inhibition and Medicinal Chemistry, 2023).
